Reference: EP3928779A1 (Chugai Seiyaku Kabushiki Kaisha, priority 2014, dated 2016)

Each molecule was assayed on rat small-intestinal brush border membrane vesicles (assay: Inhibitory effect on 33PO4 uptake into rat small-intestinal brush border membrane vesicles (rapid filtration method)). Conditions: 33PO4 uptake into rat small-intestinal BBMVs; test compound 1 µM; reacted for 60 seconds.
Assay type: biochemical
How it was run: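 Uptake of ^33PO4 was measured by rapid filtration and liquid scintillation counting of filter-retained vesicles, after quenching with ice-cold 110 mM NaCl/1 mM KH2PO4/10 mM HEPES pH 7.5. Vesicles were brush border membranes from the upper small intestine of female Wistar rats aged 4–5 weeks.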

Compound | Rate of uptake inhibition (%) (1 µM)
C[C@]12CCCN1N(Cc1cc(F)ccc1F)C(=O)C(C(=O)Nc1cc(F)c(Br)c(F)c1)=C2O [Example 193] | 82
C[C@]12CCCN1N(Cc1cc(F)c(F)cc1F)C(=O)C(C(=O)Nc1cc(F)c(Br)c(F)c1)=C2O [Example 194] | 80
Cc1cccc(CN2C(=O)C(C(=O)Nc3cc(F)c(Br)c(F)c3)=C(O)[C@@]3(C)CCCN23)c1F [Example 195] | 76
C[C@]12CCCN1N(Cc1cc(F)c(F)c(F)c1)C(=O)C(C(=O)Nc1cc(F)c(Br)c(F)c1)=C2O [Example 197] | 82
C[C@]12CCCN1N(Cc1cccc(Cl)c1F)C(=O)C(C(=O)Nc1ccc(C(F)(F)F)cc1-c1ccc(C(F)(F)F)nc1)=C2O [Example 198] | 75
C[C@]12CCCN1N(Cc1ccc(F)cc1)C(=O)C(C(=O)Nc1ccc(C(F)(F)F)cc1-c1ccc(C(F)(F)F)nc1)=C2O [Example 199] | 79
C[C@]12CCCN1N(Cc1ccccc1F)C(=O)C(C(=O)Nc1ccc(C(F)(F)F)cc1-c1ccc(C(F)(F)F)nc1)=C2O [Example 200] | 80
C[C@]12CCCN1N(Cc1cccc(F)c1Cl)C(=O)C(C(=O)Nc1ccc(C(F)(F)F)cc1-c1ccc(C(F)(F)F)nc1)=C2O [Example 201] | 77
COc1cc(CN2C(=O)C(C(=O)Nc3ccc(C(F)(F)F)cc3-c3ccc(C(F)(F)F)nc3)=C(O)[C@@]3(C)CCCN23)cc(OC)c1 [Example 202] | 75
C[C@]12CCCN1N(Cc1c(F)cccc1F)C(=O)C(C(=O)Nc1ccc(C(F)(F)F)cc1-c1ccc(C(F)(F)F)nc1)=C2O [Example 203] | 91
C[C@]12CCCN1N(Cc1c(F)cccc1Cl)C(=O)C(C(=O)Nc1ccc(C(F)(F)F)cc1-c1ccc(C(F)(F)F)nc1)=C2O [Example 204] | 87
Cc1cccc(CN2C(=O)C(C(=O)Nc3ccc(C(F)(F)F)cc3-c3ccc(C(F)(F)F)nc3)=C(O)[C@@]3(C)CCCN23)c1F [Example 205] | 86
C[C@]12CCCN1N(Cc1cccc(F)c1)C(=O)C(C(=O)Nc1ccc(C(F)(F)F)cc1-c1ccc(C(F)(F)F)nc1)=C2O [Example 206] | 76
C[C@]12CCCN1N(Cc1ccccc1F)C(=O)C(C(=O)Nc1ccc(C(F)(F)F)cc1-c1cc(C(F)(F)F)ncn1)=C2O [Example 207] | 73
C[C@]12CCCN1N(Cc1ccc(F)cc1)C(=O)C(C(=O)Nc1ccc(C(F)(F)F)cc1-c1cc(C(F)(F)F)ncn1)=C2O [Example 208] | 90
C[C@]12CCCN1N(Cc1cccc(Cl)c1F)C(=O)C(C(=O)Nc1ccc(C(F)(F)F)cc1-c1cc(C(F)(F)F)ncn1)=C2O [Example 209] | 76
C[C@]12CCCN1N(Cc1c(F)cccc1Cl)C(=O)C(C(=O)Nc1ccc(C(F)(F)F)cc1-c1cc(C(F)(F)F)ncn1)=C2O [Example 210] | 71
C[C@]12CCCN1N(Cc1cc(Cl)ccc1F)C(=O)C(C(=O)Nc1ccc(C(F)(F)F)cc1-c1cc(C(F)(F)F)ncn1)=C2O [Example 211] | 72
C[C@]12CCCN1N(Cc1c(F)cccc1F)C(=O)C(C(=O)Nc1ccc(C(F)(F)F)cc1-c1cc(C(F)(F)F)ncn1)=C2O [Example 212] | 98
C[C@]12CCCN1N(Cc1cc(F)cc(F)c1)C(=O)C(C(=O)Nc1ccc(C(F)(F)F)cc1-c1cc(C(F)(F)F)ncn1)=C2O [Example 213] | 79
C[C@]12CCCN1N(Cc1ccc(F)c(F)c1)C(=O)C(C(=O)Nc1ccc(C(F)(F)F)cc1-c1cc(C(F)(F)F)ncn1)=C2O [Example 214] | 91
Cc1cccc(CN2C(=O)C(C(=O)Nc3ccc(C(F)(F)F)cc3-c3cc(C(F)(F)F)ncn3)=C(O)[C@@]3(C)CCCN23)c1F [Example 215] | 86
